Results reported in patent US8642656B2, “Calixarene-based peptide conformation mimetics, methods of use, and methods of making” (priority 2004, dated 2014).
Like-named read-outs stand apart in the source and are kept apart here.

Tests used:
[1] = system: LPS from E. coli serotype 055:B5; assay: LPS neutralization assay (Limulus amoebocyte lysate, QCL-1000); type: biochemical
Procedure, shortened: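 Neutralization of endotoxin was measured as loss of LAL proenzyme activation driven by 0.04 units LPS, read as pNA at 405-410 nm; IC50 from sigmoidal fit.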

LPS from P. aeruginosa = assay: as above; type: biochemical, Pseudomonas aeruginosa; details: read-out: IC50 values (μM) for LPS binding, P.a.
Procedure, shortened: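 Compounds were tested for inhibition of LPS-triggered activation of the Limulus amoebocyte lysate proenzyme, which cleaves a chromogenic substrate to release p-nitroaniline read at 405-410 nm. Each LPS was used at 0.04 units. IC50 came from sigmoidal dose-response fits.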

B16 melanoma = B16 melanoma tumor growth model in mice; type: in vivo; details: tumor-bearing mice
Procedure: Female athymic nude mice (nu/nu, 5-6 weeks old) were used. These mice were purchased from the National Cancer Institute and allowed to acclimatize to local conditions for at least one week. Animals were given water and standard chow ad libitum, and were kept on a 12-hour light/dark cycle. All experiments were approved by the University of Minnesota Research Animal Resources ethical committee. Mice were randomized and split into three groups: 1) human serum albumin (10 mg/kg/day), 2) βpep-25 (10 mg/kg/day) and 3) peptide mimetic agent (5 mg or 10 mg/kg/day). Test compounds were diluted in DMSO and administered using osmotic mini-pumps (Durect, Cupertino, Calif.). Exponentially growing MA148 human ovarian carcinoma cells, kindly provided by Prof. Ramakrishnan (R. P. Dings et al., Cancer Res., 63, 382-385 (2003)) or B16 mouse melanoma cells were cultured in RPM1 1640 medium (Life Technologies, Grand Island, N.Y.). […]
Tumor volume was determined by measuring the diameters of tumors using calipers (Scienceware, Pequannock, N.J.) using the equation for the volume of a spheroid: (a^2×b×[…])/6, where ‘a’ is the width and ‘b’ the length or the tumor. […] Tumor weights correlated well with tumor volumes calculated in this way. Statistical differences in tumor growth curves were analyzed using the two-way ANOVA test.

MA148 tumor vessels = assay: Histological analysis of microvessel density, anti-CD31 staining, MA148 tumors; type: in vivo, mice; details: mean ± standard error, 20 images
Procedure: Immunohistochemistry was used to assess microvessel density and the extent of total cell apoptosis. Approximately, tumors of the same size and with no apparent necrosis were selected for processing. On the last day of treatment mice were sacrificed and tumors were excised. Tumor tissue was embedded in tissue freezing medium (Miles Inc, Elkart, Ind.) and shock frozen in liquid nitrogen. Sections of tissue (10 μm thickness) were prepared for immunohistochemical analysis. For this, tissue sections were brought to room temperature, air dried overnight, and then fixed in acetone for 10 minutes. Slides were allowed to air dry for at least 30 minutes and were washed three limes for 5 minutes each in phosphate-buffered saline (PBS, pH 7.4). Samples were then blocked with PBS containing 0.1% bovine serum albumin and 3% human serum albumin for at least 30 minutes at room temperature in a humidified box. Samples were subsequently incubated with phycoerytrin (PE)-conjugated monoclonal antibody to CD31 (PECAM-1) in a 1:50 dilution (Pharmigen, San Diego, Calif.) to stain for microvessel density.
Digital images were stored and processed using Adobe Photoshop (Adobe Inc., Mountain View Calif.). Quantification of microvessel density, were determined as described previously (Dings et al., Cancer Res 63, 382-385 (2003)). Statistical analysis was performed using the Student's t-test.

[2] = Table 3, errors estimated ±30%, read-out: IC50 values (μM) for LPS binding, E. coli 055:B5

Compound | IC50 [1, 2] | IC50 (LPS from P. aeruginosa; Table 3, errors estimated ±30%) | B16 tumor growth (in words) (B16 melanoma) | Branch Points (MA148 tumor vessels; MA148, 2.7 mg/kg) | End Points (MA148 tumor vessels; MA148, 2.7 mg/kg) | Vessel Density (MA148 tumor vessels; MA148, 2.7 mg/kg) | Vessel Length (MA148 tumor vessels; MA148, 2.7 mg/kg) | Branch Points (MA148 tumor vessels; MA148, 10 mg/kg) | End Points (MA148 tumor vessels; MA148, 10 mg/kg) | Vessel Density (MA148 tumor vessels; MA148, 10 mg/kg) | Vessel Length (MA148 tumor vessels; MA148, 10 mg/kg) | IC50 ([1]; Table 2, read-out: IC50 values (μM) for LPS binding, E. coli 055:B4) | IC50 (LPS from P. aeruginosa; Table 2) | Branch Points (MA148 tumor vessels; MA148, 2.4 mg/kg) | End Points (MA148 tumor vessels; MA148, 2.4 mg/kg) | Vessel Density (MA148 tumor vessels; MA148, 2.4 mg/kg) | Vessel Length (MA148 tumor vessels; MA148, 2.4 mg/kg)
5,11,17,23-Tetra-tert-butyl-25,27-bis(2-guanidinoethoxy)-26,28-dihydroxy calix[4]arene trifluoroacetic acid salt [Compound 27] | > 5 µM | > 5 µM | significantly inhibited | 1.1 ± 0.3 pixel counts per image | 32.7 ± 6.0 pixel counts per image | 6046 ± 533 pixel counts per image | 4.2 ± 0.6 pixel counts per image | 2.3 ± 0.6 pixel counts per image | 14.7 ± 2.2 pixel counts per image | 7402 ± 763 pixel counts per image | 5.0 ± 0.7 pixel counts per image |  |  |  |  |  | 
CN(C)CCNC(=O)COc1c2cccc1Cc1cccc(c1OCC(=O)NCCN(C)C)Cc1cccc(c1OCC(=O)NCCN(C)C)Cc1cccc(c1OCC(=O)NCCN(C)C)C2 [Compound 40] | 3.4 µM | > 5 µM | significantly inhibited |  |  |  |  | 1.0 ± 0.2 pixel counts per image | 23.0 ± 2.9 pixel counts per image | 5112 ± 439 pixel counts per image | 3.3 ± 0.5 pixel counts per image | 3.4 µM | > 5 µM | 1.6 ± 0.3 pixel counts per image | 15.7 ± 2.1 pixel counts per image | 7148 ± 844 pixel counts per image | 5.3 ± 0.7 pixel counts per image
